Source: patent US11339130B1 (Blade Therapeutics, Inc., priority 2016, dated 2022)
Like-named read-outs stand apart in the source and are kept apart here.

Tests used:
Human Calpain 1/NS1 = biological target: T1, Human Calpain 1/NS1 (Homo sapiens, UniProt P07384); assay: Calpain inhibition continuous fluorescence (FRET) assay, Human Calpain 1/NS1; assay type: biochemical; details: read-out: Human Calpain 1/NS1 IC50
T1 sequence (P07384 1-714): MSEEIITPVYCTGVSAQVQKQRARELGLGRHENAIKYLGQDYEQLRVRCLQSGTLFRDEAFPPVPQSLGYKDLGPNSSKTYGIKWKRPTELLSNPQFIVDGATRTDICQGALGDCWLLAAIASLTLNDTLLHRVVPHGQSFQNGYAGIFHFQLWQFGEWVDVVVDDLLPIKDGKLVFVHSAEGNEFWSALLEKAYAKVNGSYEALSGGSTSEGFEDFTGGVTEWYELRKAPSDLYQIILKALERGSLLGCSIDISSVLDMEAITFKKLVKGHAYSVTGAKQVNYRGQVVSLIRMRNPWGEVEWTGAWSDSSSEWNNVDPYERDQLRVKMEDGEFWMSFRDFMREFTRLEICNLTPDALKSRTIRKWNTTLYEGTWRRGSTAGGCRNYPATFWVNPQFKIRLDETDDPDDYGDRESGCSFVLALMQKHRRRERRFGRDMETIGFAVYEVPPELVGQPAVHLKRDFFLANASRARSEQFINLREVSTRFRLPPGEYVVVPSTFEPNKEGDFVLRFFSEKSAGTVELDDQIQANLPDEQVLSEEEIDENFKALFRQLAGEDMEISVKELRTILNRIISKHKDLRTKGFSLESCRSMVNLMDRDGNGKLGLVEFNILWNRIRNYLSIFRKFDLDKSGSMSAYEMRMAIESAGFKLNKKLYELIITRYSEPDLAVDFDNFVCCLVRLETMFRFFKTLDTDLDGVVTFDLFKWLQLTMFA
T1 sequence (P04632 1-268 partner): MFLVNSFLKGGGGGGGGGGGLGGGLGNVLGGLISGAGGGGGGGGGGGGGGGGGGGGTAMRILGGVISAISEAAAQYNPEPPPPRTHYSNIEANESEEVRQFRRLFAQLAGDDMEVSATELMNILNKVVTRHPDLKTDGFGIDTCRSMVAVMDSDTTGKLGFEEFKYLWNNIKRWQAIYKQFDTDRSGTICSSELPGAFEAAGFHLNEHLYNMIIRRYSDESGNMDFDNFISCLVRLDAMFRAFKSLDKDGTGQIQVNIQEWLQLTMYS
Method in brief: (§1)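 Inhibitors were preincubated with calpain in 50 mM Tris pH 7.5, 100 mM NaCl, 1 mM DTT at 25C. Reactions were started with 5-FAM/QXL 520 FRET peptide substrate plus CaCl2 and read at 490/520 nm for 10 min. IC50s came from 4-parameter fits of slope rates (1-5 min).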

Human Calpain 2/NS1 = biological target: T2, Human Calpain 2/NS1 (Homo sapiens, UniProt P17655); assay: Calpain inhibition continuous fluorescence (FRET) assay, Human Calpain 2/NS1; assay type: biochemical; details: read-out: Human Calpain 2/NS1 IC50
T2 sequence (P17655 1-700): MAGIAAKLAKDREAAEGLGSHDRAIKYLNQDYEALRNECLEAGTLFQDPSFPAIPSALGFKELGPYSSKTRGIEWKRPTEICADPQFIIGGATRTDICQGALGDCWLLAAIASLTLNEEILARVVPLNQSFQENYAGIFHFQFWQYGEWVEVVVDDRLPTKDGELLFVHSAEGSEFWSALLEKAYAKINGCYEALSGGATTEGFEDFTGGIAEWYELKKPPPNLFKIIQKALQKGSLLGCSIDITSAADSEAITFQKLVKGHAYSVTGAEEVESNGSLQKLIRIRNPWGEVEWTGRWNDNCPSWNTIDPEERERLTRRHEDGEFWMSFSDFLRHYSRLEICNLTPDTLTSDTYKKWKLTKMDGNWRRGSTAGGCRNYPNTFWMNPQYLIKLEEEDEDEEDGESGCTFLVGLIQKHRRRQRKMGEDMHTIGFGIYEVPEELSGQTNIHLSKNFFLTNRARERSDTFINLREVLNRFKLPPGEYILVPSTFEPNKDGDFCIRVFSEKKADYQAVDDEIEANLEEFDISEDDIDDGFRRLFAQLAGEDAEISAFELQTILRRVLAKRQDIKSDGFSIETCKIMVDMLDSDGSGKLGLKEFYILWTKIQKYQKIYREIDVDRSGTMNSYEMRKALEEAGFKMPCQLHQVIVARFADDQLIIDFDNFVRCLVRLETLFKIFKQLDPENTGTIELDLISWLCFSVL
T2 sequence (P04632 1-268 partner): T1 sequence (P04632 1-268 partner)
Method in brief: as §1

Human Calpain 9/NS1 = biological target: T3, Human Calpain 9/NS1 (Homo sapiens, UniProt O14815); assay: Calpain inhibition continuous fluorescence (FRET) assay, Human Calpain 9/NS1; assay type: biochemical; details: read-out: Human Calpain 9/NS1 IC50
T3 sequence (O14815 1-690): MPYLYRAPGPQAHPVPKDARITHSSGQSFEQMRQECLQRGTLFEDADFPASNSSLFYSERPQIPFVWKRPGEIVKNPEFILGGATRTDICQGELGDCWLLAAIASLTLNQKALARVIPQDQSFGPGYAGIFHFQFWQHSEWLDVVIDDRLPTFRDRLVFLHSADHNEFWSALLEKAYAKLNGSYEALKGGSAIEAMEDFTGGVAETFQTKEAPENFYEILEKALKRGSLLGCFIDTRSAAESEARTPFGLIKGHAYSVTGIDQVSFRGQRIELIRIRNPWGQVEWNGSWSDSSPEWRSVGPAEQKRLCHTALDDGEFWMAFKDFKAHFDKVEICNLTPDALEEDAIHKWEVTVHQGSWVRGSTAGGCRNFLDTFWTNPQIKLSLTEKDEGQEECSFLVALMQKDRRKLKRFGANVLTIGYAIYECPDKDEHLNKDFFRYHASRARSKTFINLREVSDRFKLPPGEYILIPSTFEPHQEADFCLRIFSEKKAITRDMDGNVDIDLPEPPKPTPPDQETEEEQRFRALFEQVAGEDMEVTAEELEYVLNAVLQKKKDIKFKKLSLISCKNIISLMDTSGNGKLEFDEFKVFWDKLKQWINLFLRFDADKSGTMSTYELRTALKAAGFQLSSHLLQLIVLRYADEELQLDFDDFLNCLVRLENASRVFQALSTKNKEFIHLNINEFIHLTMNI
T3 sequence (P04632 1-268 partner): T1 sequence (P04632 1-268 partner)
Method in brief: as §1

[1] = tested on: Calpain activity in SH-SY5Y cells (SBDP-150); assay: SH-SY5Y Spectrin western blot assay (SBDP-150 breakdown product, A23187-induced); assay type: cell-based; details: Homo sapiens, SH-SY5Y cells, read-out: SH-SY5Y Spectrin IC50
[2] = tested on: Calpain activity in SH-SY5Y cells; assay: SH-SY5Y + AMC fluorescence assay (Suc-LLVY-AMC substrate); assay type: cell-based; details: read-out: SH-SY5Y + AMC IC50
[3] = A23187-induced SBDP-150, western blot
[4] = Column D, A23187-induced SBDP-150

Row | Compound | IC50 (Human Calpain 1/NS1) [µM] | IC50 (Human Calpain 2/NS1) [µM] | IC50 (Human Calpain 9/NS1) [µM] | IC50 [1, 3] [µM] | IC50 [2] [µM] | IC50 (Human Calpain 1/NS1; Column A) [µM] | IC50 (Human Calpain 2/NS1; Column B) [µM] | IC50 (Human Calpain 9/NS1; Column C) [µM] | IC50 [1, 4] [µM] | IC50 ([2]; Column E) [µM]
1 | COc1cncc(-c2nn(C)cc2C(=O)NC(Cc2ccccc2)C(=O)C(N)=O)c1 (stereo not drawn) [Compound 515, N-(4-amino-3,4-dioxo-1-phenylbutan-2-yl)-3-(5-methoxypyridin-3-yl)-1-methyl-1H-pyrazole-4-carboxamide] | < 3 | < 3 | < 3 | > 25 | > 25 |  |  |  |  | 
2 | NC(=O)C(=O)[C@H](Cc1ccccc1)NC(=O)c1nnsc1-c1ccccc1 [Compound 28, (S)—N-(4-amino-3,4-dioxo-1-phenylbutan-2-yl)-5-phenyl-1,2,3-thiadiazole-4-carboxamide] |  |  |  |  |  | < 3 | < 3 | < 3 | < 10 | < 10
3 | Cn1cc(C(=O)N[C@@H](CC(C)(C)C)C(=O)C(N)=O)c(-c2ccccc2)n1 [Compound 416, (S)—N-(1-amino-5,5-dimethyl-1,2-dioxohexan-3-yl)-1-methyl-3-phenyl-1H-pyrazole-4-carboxamide] | < 3 | < 3 | < 3 | > 25 | > 25 |  |  |  |  | 
4 | NC(=O)C(=O)C(Cc1ccc(F)cc1)NC(=O)c1nsnc1-c1ccccc1 (stereo not drawn) [Compound 464, N-(4-amino-1-(4-fluorophenyl)-3,4-dioxobutan-2-yl)-4-phenyl-1,2,5-thiadiazole-3-carboxamide] | < 3 | < 3 | < 3 | < 10 | < 10 |  |  |  |  | 
5 | Cc1cc(C(=O)N[C@@H](Cc2ccccc2)C(=O)C(N)=O)n(-c2ccc(-c3ccccc3F)cc2)n1 [Compound 217, (S)—N-(4-amino-3,4-dioxo-1-phenylbutan-2-yl)-1-(2′-fluoro-[1,1′-biphenyl]-4-yl)-3-methyl-1 h-pyrazole-5-carboxamide] |  |  |  |  |  | < 3 | < 3 | < 3 | < 10 | > 25
6 | Cc1cc(C(=O)N[C@@H](Cc2ccccc2)C(=O)C(N)=O)n(-c2cccnc2)n1 [Compound 136, (S)—N-(4-amino-3,4-dioxo-1-phenylbutan-2-yl)-3-methyl-1-(pyridin-3-yl)-1H-pyrazole-5-carboxamide] |  |  |  |  |  | < 3 | < 3 | < 3 | 10 to 25 | 10 to 25
7 | Cc1cc(C(=O)N[C@@H](Cc2ccccc2)C(=O)C(N)=O)n(-c2cccc(-c3ccccc3)c2)n1 [Compound 16, (S)-1-([1,1′-biphenyl]-3-yl)-N-(4-amino-3,4-dioxo-1-phenylbutan-2-yl)-3-methyl-1H-pyrazole-5-carboxamide] |  |  |  |  |  | < 3 | < 3 | < 3 | 10 to 25 | 10 to 25
8 | Cc1nc(-c2ccccc2)c(C(=O)N[C@@H](Cc2ccc(O)cc2)C(=O)C(N)=O)o1 [Compound 354] | < 3 | < 3 | < 3 | < 10 | < 10 |  |  |  |  | 
9 | CC(NC(=O)c1nsnc1-c1ccccc1)C(=O)C(N)=O (stereo not drawn) [Compound 468, N-(4-amino-3,4-dioxobutan-2-yl)-4-phenyl-1,2,5-thiadiazole-3-carboxamide] | < 3 | < 3 | < 3 | < 10 | > 25 |  |  |  |  | 
10 | Cn1cnc(-c2ccccc2)c1C(=O)N[C@@H](Cc1ccccc1)C(=O)C(N)=O [Compound 268, (S)—N-(4-amino-3,4-dioxo-1-phenylbutan-2-yl)-1-methyl-4-phenyl-1H-imidazole-5-carboxamide] |  |  |  |  |  | < 3 | < 3 | < 3 | > 25 | > 25
11 | NC(=O)C(=O)C(Cc1ccccc1)NC(=O)c1cc(C(F)(F)F)sc1-c1ccccc1 (stereo not drawn) [Compound 286] |  |  |  |  |  | < 3 | < 3 | < 3 | < 10 | > 25
12 | Cc1onc(-c2ccccc2)c1C(=O)N[C@@H](Cc1ccccc1)C(=O)C(N)=O [Compound 27, (S)—N-(4-amino-3,4-dioxo-1-phenylbutan-2-yl)-5-methyl-3-phenylisoxazole-4-carboxamide] |  |  |  |  |  | < 3 | < 3 | < 3 | 10 to 25 | > 25
13 | CC[C@H](NC(=O)c1cn(C)nc1-c1ccccc1)C(=O)C(N)=O [Compound 332, (S)—N-(1-amino-1,2-dioxopentan-3-yl)-1-methyl-3-phenyl-1H-pyrazole-4-carboxamide] | < 3 | < 3 | < 3 | > 25 | > 25 |  |  |  |  | 
14 | Cc1cc(C(=O)N[C@@H](Cc2ccccc2)C(=O)C(N)=O)n(-c2cccc(CNS(=O)(=O)c3ccccc3)c2)n1 [Compound 145, (S)—N-(4-amino-3,4-dioxo-1-phenylbutan-2-yl)-3-methyl-1-(3-(phenylsulfonamidomethyl)phenyl)-1H-pyrazole-5-carboxamide] |  |  |  |  |  | < 3 | < 3 | < 3 | < 10 | < 10
15 | Cc1cc(C(=O)N[C@@H](Cc2ccccc2)C(=O)C(N)=O)n(-c2ccc(S(C)(=O)=O)cc2)n1 [Compound 17, (S)—N-(4-amino-3,4-dioxo-1-phenylbutan-2-yl)-3-methyl-1-(4-(methylsulfonyl)phenyl)-1H-pyrazole-5-carboxamide] |  |  |  |  |  | < 3 | < 3 | < 3 | < 10 | > 25
